Experimental data reported in patent EP4663204A1, “COMPOUNDS USEFUL FOR THE MODULATION OF THE ACTIVITY OF STING” (Sulis Therapeutics ApS, priority 2024, dated 2025).
Where “and” joins values, the source holds several entries; their conditions need not be identical. Identical values can stand only once. Entries after “also recorded” stand apart in the source; their conditions may differ.

Experiments:
STING [1] = target: T1, STING (Homo sapiens, UniProt Q86WV6); experiment: Inhibition of STING-agonist-induced IFN-β and CXCL10 release (Figure 11); type: cell-based; design: To assess STING degradation and recovery in human foreskin fibroblasts HFF-1 cells; host or cells: HFF-1 human foreskin fibroblasts; conditions: for IFN media concentration: Figure 11A
T1 sequence (Q86WV6 whole entry): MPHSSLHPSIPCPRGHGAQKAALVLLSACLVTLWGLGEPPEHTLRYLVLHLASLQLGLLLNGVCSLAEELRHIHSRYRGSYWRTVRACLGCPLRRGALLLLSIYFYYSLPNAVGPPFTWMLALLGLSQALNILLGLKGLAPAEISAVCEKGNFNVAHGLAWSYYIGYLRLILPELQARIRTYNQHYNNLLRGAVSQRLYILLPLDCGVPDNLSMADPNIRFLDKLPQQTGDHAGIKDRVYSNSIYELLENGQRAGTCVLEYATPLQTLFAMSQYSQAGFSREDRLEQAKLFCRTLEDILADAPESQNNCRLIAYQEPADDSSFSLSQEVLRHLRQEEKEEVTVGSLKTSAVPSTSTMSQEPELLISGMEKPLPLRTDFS
Method: HFF-1 cells were assessed for inhibition of STING-agonist-induced IFN-β and CXCL10 release in cells treated with Compounds A9 and A11.
HFF-1 cells were cultured as described in Example 7 above except that cells were seeded in a 24-well plate at 30,000 cells/well. […]

STING [2] = target: T1, STING; experiment: Western Blot of diABZI-induced STING activation in primary human skin fibroblasts (Figure 9); type: cell-based; design: To assess STING degradation and recovery in human foreskin fibroblasts HFF-1 cells; host or cells: HFF-1 human foreskin fibroblasts; conditions: 5 µM
Method: To assess whether S1 STING ligands inhibit STING activation, primary human skin fibroblasts (Figure 9) or HFF-1 cells (Figure 10) were treated with various compounds which comprise only an S1 ligand domain and a Linker domain before undergoing Western Blot analysis as described below.
Cell culture methods as described above for primary human skin fibroblast and HFF-1 cells were used in the current experiments. Methods as described above for H596, H1650 and HaCat cells were applied for cell lysis and western blotting.
Cells were incubated with A9 or A11 for 1 or 2 hours before addition of diABZI c3, treated with test compound and diABZI c3 simultaneously, or treated with A9 or A11 after 15 minutes incubation with diABZI c3. As a control, cells were also treated with diABZI c3 alone.

Compound	IFN media concentration (STING [1]; 5 µM compound 1 to 2 hours before, simultaneously with, or 15 minutes after 0.3 µM diABZI c3)	secretion of Functional Type I IFN (STING [1]; human skin fibroblasts, 5 µM, 0.3 µM diABZI, Figure 11 (A))	secretion of CXCL10 (STING [1]; human skin fibroblasts, 5 µM, 0.3 µM diABZI, Figure 11 (B))	LC3B lipidation (STING [2]; 0.3 µM diABZI)	P-TBK1 (STING [2]; 0.3 µM diABZI, versus diABZI c3 only)	P-STING (STING [2]; before (-2h, -1h), simultaneously with, or 15 minutes after 0.3 µM diABZI, versus diABZI c3 only)	CXCL10 media concentration (STING [1]; cells treated with diABZI c3 alone, Figure 11B)	IFN media concentration (STING [1]; cells treated with only diABZI c3)
CCn1nc(C)cc1C(=O)N=c1n(C)c2cc(C(N)=O)ccc2n1CCC(CCn1c(=NC(=O)c2cc(C)nn2CC)n(C)c2cc(C(N)=O)ccc21)OCC(=O)N1CCc2cc(OC)ccc2C1 (centres unmarked) [A9, 1-(5-{5-Carbamoyl-2-[(1-ethyl-3-methyl-5-pyrazolyl)carbonylimino]-3-methyl-2,3-dihydro-1H-1,3-benzimidazol-1-yl}-3-[2-(6-methoxy-1,2,3,4-tetrahydro-2-isoquinolyl)-2-oxoethoxy]pentyl)-2-[(1-ethyl-3-methyl-5-pyrazolyl)carbonylimino]-3-methyl-2,3-dihydro-1H-1 ,3-benzimidazole-5-carboxamide]	~ 100 U/mL	inhibits secretion	inhibits secretion	reduced LC3B lipidation; also recorded: decrease in LC3B lipidation	reduced P-TBK1 intensity	reduced intensity; also recorded: decrease in P-STING	–	–
CCn1nc(C)cc1C(=O)Nc1nc2cc(C(N)=O)cc(OC)c2n1C/C=C/Cn1c(NC(=O)c2cc(C)nn2CC)nc2cc(C(N)=O)cc(OCCCN3CCOCC3)c21 [diABZI c3, reference compound]	–	–	–	–	–	–	~ 60 pg/mL	~ 200 U/mL and ~ 100 U/mL
